The source of these data is patent EP1660440B1, “ACYLOXYALKYL CARBAMATE PRODRUGS, METHODS OF SYNTHESIS AND USE” (priority 2003, dated 2005).

For series [1] the following is noted: human, in vivo; cited from earlier work.
The nature of series [2]: in vitro. Conditions: human; for remaining at 1 h, 2 µM: liver s9, % of Prodrug Remaining.
Protocol: (§1) The stabilities of prodrugs were evaluated in one or more in vitro systems using a variety of tissue preparations following methods known in the art. The chemical stability of prodrugs in aqueous buffers at pH's of 2.0, 7.4 and 8.0 were also measured. […] Each preparation was incubated with test compound at 37°C for one hour. Aliquots (50 µL) were removed at 0, 30, and 60 min and quenched with 0.1 % trifluoroacetic acid in acetonitrile.
Series [3] in a line: in vitro. To be noted: human, Caco-2.
Protocol: (§2) For example, cellular permeability may be evaluated by examining the flux of a prodrug across a cultured polarized cell monolayer (e.g., Caco-2 cells). Caco-2 cells obtained from continuous culture (passage less than 28) were seeded at high density onto Transwell polycarbonate filters. Cells were maintained with DMEM / 10% fetal calf serum + 0.1 mM nonessential amino acids + 2 mM L-Gln, 5% CO2/ / 95% O2, 37°C until the day of the experiment. Permeability studies were conducted at pH 6.5 apically (in 50 mM MES buffer containing 1 mM CaCl2, 1mM MgCl2, 150 mM NaCl, 3 mM KCl, 1 mM NaH2PO4, 5 mM glucose) and pH 7.4 basolaterally (in Hanks' balanced salt solution containing 10 mM HEPES) in the presence of efflux pump inhibitors (250 µM MK-571, 250 µM Verapamil, 1 mM Ofloxacin). Inserts were placed in 12 or 24 well plates containing buffer and incubated for 30 min at 37C°. Prodrug (200 µM) was added to the apical or basolateral compartment (donor) and concentrations of prodrug and/or released parent drug in the opposite compartment (receiver) were determined at intervals over 1 hour using LC/MS/MS. Values of apparent permeability (Papp) were calculated using the equation: Papp = Vr (dC/dt)//(ACo) [formula]
(§3) Here Vr is the volume of the receiver compartment in mL; dC/dt is the total flux ofprodrug and parent drug (µM/s), determined from the slope of the plot of concentration in the receiver compartment versus time; Co is the initial concentration of prodrug in µM; A is the surface area of the membrane in cm^2.
The nature of series [4]: in vitro. Conditions: human.
Protocol: For stability studies, prodrug (5 µM) was incubated in Caco-2 homogenate S9 fraction (0.5 mg protein per mL) for 60 min at 37°C. Concentrations of intact prodrug and released baclofen were determined at zero time and 60 minutes using LC/MS/MS.
Series [5] can be described thus: in vitro. Conditions: rat; for remaining at 1 h, 2 µM: liver s9, % of Prodrug Remaining.
Protocol: as §1
The next series in a line: physchem. To be noted: aqueous buffer.
A short description of another series: Pancreatin stability. It is filed as in vitro ADME, porcine. To be noted: pig, 5 µM, pH 7.5, 37 °C, after 60 min; for metabolised at 1 h, 5 µM: pancreatin, pH 7.5, 1 % (w/v) pancreatin, read-out: % of Baclofen Released; for remaining at 1 h, 5 µM: 1 % (w/v) pancreatin, read-out: % of Prodrug Remaining. The method, then:
Pancreatin Stability: Stability studies were conducted by incubating prodrug (5 µM) with 1 % (w/v) pancreatin (Sigma, P-1625, from porcine pancreas) in 0.025 M Tris buffer containing 0.5 M NaCl (pH 7.5) at 37 °C for 60 min. The reaction was stopped by addition of 2 volumes of methanol. After centrifugation at 14,000 rpm for 10 min, the supernatant was removed and analyzed by LC/MS/MS.

Series [6] can be described thus: in vitro. Conditions: human, plasma.
Protocol: as §1
Series [7] is described as follows: in vitro. Conditions: rat, plasma.
Protocol: as §1
In the next series the test system is Caco-2 cells. To be noted: human, Caco-2, 200 uM.
Series [8] in a line: Caco-2 cellular permeability of prodrugs. To be noted: human. (Caco-2 monolayers are a common model of the intestinal barrier.)
Protocol: as §2, §3
The format of series [9] is in vivo. Conditions: cynomolgus monkeys, intravenous bolus, 1.2 mg/kg. The procedure:
R-Baclofen hydrochloride salt was administered to four male cynomolgus monkeys as an aqueous solution by intravenous bolus injection into the saphenous vein at a dose of 1.2 mg/kg. Blood samples were obtained from all animals at intervals over 24 hours post-dosing. Blood was processed immediately for plasma at 4°C. All plasma samples were subsequently analyzed for R-baclofen using the LC/MS/MS assay described above. The mean R-baclofen exposure AUCinf = 3.6 h.µg/mL.

Protocol for Caco-2 cells: as §2, §3
Protocol for physchem: as §1

Take `NCC(CC(=O)O)c1ccc(Cl)cc1` (racemic) [Baclofen, (±)-4-Amino-3-(4-chlorophenyl)butanoic acid]: in series [1], the elimination half-life was 3 to 4 h.

As usually defined, the Papp A→B is how fast a substance crosses the layer from the apical side. For orientation: Papp B→A means how fast a substance crosses the layer from the basolateral side. In general, share remaining refers to the share of the starting amount still present when the sample was taken. Consider `CCCC(=O)OCOC(=O)NC[C@H](CC(=O)O)c1ccc(Cl)cc1` [(16), Sodium 4-[(Butanoyloxymethoxy)carbonylamino]-(3R)-(4-chlorophenyl)-butanoate], for which the metabolised at 1 h, 2 µM in the series “in vitro [2]” (s9) is 100%; in the series “in vitro [5]” (s9), 100%; in “in vitro [6]” it was 20%; in the series “in vitro [7]” it was 40%. This compound showed a Papp A→B at 200 µM in the series “in vitro [3]” of 6.1 ×10⁻⁶ cm/s. Further, in “in vitro [3]”, the Papp B→A at 200 µM was found to be 1.2 ×10⁻⁶ cm/s. For the same compound, the metabolised at 1 h, 5 µM in “in vitro [4]” (s9) worked out at 100%; in “Pancreatin stability” it was 84%. In addition, the degraded at 1 h in “physchem” (pH 2), in the series “physchem” (pH 7.4) and in the series “physchem” (pH 8) was 0% throughout. In addition, in the series “Pancreatin stability”, the share remaining at 1 h, 5 µM was 1%.

For `CC(C)C(=O)OCOC(=O)NC[C@H](CC(=O)O)c1ccc(Cl)cc1` [(18), Sodium 4-[(Isobutanoyloxymethoxy)carbonylamino]-(3R)-(4-chlorophenyl)-butanoate], the metabolised at 1 h, 2 µM came out at 100% in the series “in vitro [2]” (s9), 100% in “in vitro [5]” (s9), 27% in the series “in vitro [6]” and 60% in “in vitro [7]”. Also, the Papp A→B at 200 µM in the series “in vitro [3]” was determined as 6.4 ×10⁻⁶ cm/s. The apparent permeability from basolateral to apical (Papp B→A) at 200 µM in “in vitro [3]” came to 5.6 ×10⁻⁶ cm/s. Besides, the figures for the metabolised at 1 h, 5 µM in “in vitro [4]” (s9) and in the series “Pancreatin stability” were 100% and 91%, respectively. Further, the degraded at 1 h in the series “physchem” (pH 2), in “physchem” (pH 7.4) and in the series “physchem” (pH 8) was 0% each time. Moreover, the fraction remaining at 1 h, 5 µM in “Pancreatin stability” was determined as 2%.

As for `CCCC(=O)OC(OC(=O)NC[C@H](CC(=O)O)c1ccc(Cl)cc1)C(C)C` (some centres unmarked) [(27)], the metabolised at 1 h, 2 µM was found to be 79% in “in vitro [2]” (liver s9), 89% in the series “in vitro [5]” (liver s9), 12% in the series “in vitro [6]” (% of Baclofen Released) and 88% in “in vitro [7]”. Further, the amount remaining at 1 h, 2 µM in the series “in vitro [2]” amounted to 8%; in the series “in vitro [5]”, 0%. The values for the metabolised at 1 h, 5 µM in “in vitro [4]” (caco-2 homogenate s9) and in “Pancreatin stability” were 67% and 9%, respectively. The “Ratio A-BB-A” value in the series on Caco-2 cells worked out at 6.9. The degraded at 1 h in the series “physchem” (pH 2, % of Baclofen Released) was 0%; in the series “physchem” (pH 7.4, % of Baclofen Released), 0%; in “physchem” (pH 8, % of Baclofen Released) it was 1%. Besides, the apparent permeability from apical to basolateral (Papp A→B) at 200 µM in series [8] was found to be 65 ×10⁻⁶ cm/s. The Papp B→A at 200 µM in series [8] came out at 9.4 ×10⁻⁶ cm/s. In addition, the fraction remaining at 1 h, 5 µM in “Pancreatin stability” was 71%.

As to `CC(=O)OC(C)OC(=O)NC[C@H](CC(=O)O)c1ccc(Cl)cc1` (stereo partly drawn) [(30), Sodium 4-[(1-Acetoxyethoy)carbonylamino]-(3R)-(4-chlorophenyl)-butanoate], the metabolised at 1 h, 2 µM in “in vitro [2]” (s9) worked out at 87%; in “in vitro [5]” (s9), 85%; in “in vitro [6]”, 8%; in “in vitro [7]”, 42%. The same compound came in with an apparent permeability from apical to basolateral (Papp A→B) at 200 µM in the series “in vitro [3]” of 8.7 ×10⁻⁶ cm/s. Also, the Papp B→A at 200 µM in “in vitro [3]” came out at 2.3 ×10⁻⁶ cm/s. For the same compound, the metabolised at 1 h, 5 µM was 70% in “in vitro [4]” (s9) and 9% in the series “Pancreatin stability”. Besides, the degraded at 1 h in “physchem” (pH 2) turned out to be 0%; in the series “physchem” (pH 7.4), 1%; in “physchem” (pH 8), 3%. Besides, the share remaining at 1 h, 5 µM in the series “Pancreatin stability” was 90%.

On to `CC(C)C(OC(=O)NC[C@H](CC(=O)O)c1ccc(Cl)cc1)OC(=O)C(C)(C)C` (stereo partly drawn) [(43), Sodium 4-[(1-Pivaloyloxyisobutoxy)carbonylamino]-(3R)-(4-chlophenyl)-butanoate], for which the metabolised at 1 h, 2 µM in “in vitro [2]” (liver s9) amounted to 39%; in the series “in vitro [5]” (liver s9) it was 97%; in “in vitro [6]” (% of Baclofen Released), 2%; in the series “in vitro [7]”, 29%. Moreover, the share remaining at 1 h, 2 µM in the series “in vitro [2]” was found to be 61%; in “in vitro [5]”, 3%. Moreover, the metabolised at 1 h, 5 µM in the series “in vitro [4]” (caco-2 homogenate s9) worked out at 49%; in “Pancreatin stability”, 4%. For the same compound, the “Ratio A-BB-A” value in the series with Caco-2 cells turned out to be 2.3. In addition, the degraded at 1 h in the series “physchem” (pH 2, % of Baclofen Released) was 0%; in the series “physchem” (pH 7.4, % of Baclofen Released), 0%; in “physchem” (pH 8, % of Baclofen Released) it was 0%. For the same compound, the apical-to-basolateral permeability (Papp A→B) at 200 µM in series [8] worked out at 42 ×10⁻⁶ cm/s. Besides, the apparent permeability from basolateral to apical (Papp B→A) at 200 µM in series [8] came out at 18 ×10⁻⁶ cm/s. Also, the amount remaining at 1 h, 5 µM in the series “Pancreatin stability” came to 82%.

Turning to `Cl.NC[C@H](CC(=O)O)c1ccc(Cl)cc1` [R-Baclofen hydrochloride salt], the “mean R-baclofen exposure AUCinf” value in [9] was 3600 ng·h/mL.
